According to ChEMBL document CHEMBL1136238, “Synthesis and PDF inhibitory activities of novel benzothiazolylidenehydroxamic acid derivatives” (Bioorg Med Chem Lett, 2003):
In brackets after ≈: the same amount, converted by molar mass.

Tests used:
Pseudomonas aeruginosa = assay: In vitro minimum inhibitory concentration required against Pseudomonas aeruginosa ATCC 9027; type: functional
Escherichia coli = assay: In vitro minimum inhibitory concentration required against Escherichia coli ATCC 25922; type: functional
Staphylococcus aureus = assay: In vitro minimum inhibitory concentration required against Staphylococcus aureus ATCC 10390; type: functional
[1] = target: Peptide deformylase (Escherichia coli) (UniProt P0A6K3); assay: In vitro inhibitory concentration required against peptide deformylase (PDF)
Sequence of Peptide deformylase (Escherichia coli) (P0A6K3 whole entry, looked up): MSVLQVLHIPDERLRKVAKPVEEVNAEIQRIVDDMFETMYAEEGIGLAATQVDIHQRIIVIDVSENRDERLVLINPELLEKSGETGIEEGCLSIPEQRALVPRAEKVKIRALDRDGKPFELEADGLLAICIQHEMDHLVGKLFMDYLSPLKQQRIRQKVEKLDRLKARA

| MIC (Pseudomonas aeruginosa) [µg/mL] | MIC (Escherichia coli) [µg/mL] | MIC (Staphylococcus aureus) [µg/mL] | IC50 [1] [µM] | SMILES |
| --- | --- | --- | --- | --- |
| 100 (≈ 359 µM) | > 100 | 100 (≈ 359 µM) | 9.91 | CCCCCN1/C(=C/C(=O)NO)Sc2ccccc21 |
| > 100 | > 100 | > 100 | > 100 | CCN1/C(=C/C(=O)NO)Sc2ccccc21 |
| 100 (≈ 259 µM) | 50 (≈ 130 µM) | 3 (≈ 7.78 µM) | – | CCCCC[C@H](CC(=O)NO)C(=O)N[C@H](C(=O)N1CCC[C@H]1CO)C(C)C [ACTINONIN] |
| 100 (≈ 399 µM) | > 100 | 10 (≈ 39.9 µM) | 8.39 | CCCN1/C(=C/C(=O)NO)Sc2ccccc21 |
| > 100 | > 100 | > 100 | > 100 | CCCCN1/C(=C/C(=O)O)Sc2ccccc21 |
| > 100 | > 100 | > 100 | > 100 | CCCCN1/C(=C/C(=O)NO)S(=O)(=O)c2ccccc21 |
| 100 (≈ 378 µM) | > 100 | – | – | CCCCN1/C(=C/C(=O)NO)Sc2ccccc21 |
